Key:
[1] = background art, pHLIP derivatives produced by sequence adjustment; cited from earlier work
[2] = test system: Human colorectal cancer cell line SW480; conditions: for insertion into the surface of the cell (fluorescence on cell membrane): acid solution environment, PBS pH 6.3, alexa647 marked peptide; for insertion into the surface of the cell (fluorescence on cell membrane) / membrane insertion ability: 37° C. 1 hour; for membrane insertion ability: neutral solution environment, PBS pH 7.4, alexa647 marked peptide
Description: (1) The SW480 cells in logarithmic phase were collected, the culture solution was discarded, and the cells were washed twice with saline. […] The cells were transferred to a 10 ml test tube to centrifuge at 1000 rpm for 5 min, the supernatant was removed, and 1 ml of RPMI 1640 medium containing 10% fetal bovine serum was added to resuspend and mix the cells. After 10 μl of the cell suspension was added to a cell counting plate and counted, a certain amount of the cell suspension was added into the laser confocal cell culture dish, which was then adjusted to a cell system of 5* 10^5, 1 ml with complete medium, and put into a cell incubator and incubated overnight.
(2) The culture solution was prepared using 1 mol/L hydrochloric acid and a PBS buffer at pH 7.4. Hydrochloric acid was added dropwise to the PBS buffer, and finally the pH value of the buffer was titrated to 6.3.
(3) When the SW480 cells adhered after being cultured overnight, the supernatant of the medium was removed, and the cells were washed twice with a PBS buffer at pH 7.4.
(4) The PBS buffer in the cell culture dish was removed, 1 ml of the previously prepared mixed culture buffers of PBS at pH 6.3 and 7.4 and peptides were added to the two dishes, respectively, and 1 ml of the PBS medium at pH 7.4 without peptides was added to another control dish, and all of them were put in a 37° C. cell incubator to incubate for 1 hour.
(5) After incubation, the supernatant of the peptide-containing PBS culture solution was removed, and the peptide-containing PBS culture solution was washed three times with peptide-free PBS buffers with different pH values in each group, and then added with a PBS buffer at pH 7.4.
(6) The prepared cell culture dishes were placed under the laser confocal microscope (647 mm excitation wavelength) to observe the fluorescence expression on the surface of the cell membrane.

[3] = test system: Mouse colon cancer cells CT26 tumors; conditions: for fluorescent marking of tumor tissues by 72 hours: 72 hours after intravenous injection; for marking of tumors (in vivo imaging): CT26 subcutaneous tumors, alexa647 marked peptide intravenously, imaging at 24, 48, 72 hours
Description: Mouse colon cancer cells CT26 were subcutaneously inoculated into Balb/c mice, and when the tumors grew to about 1 cm, saline (N.S.), alexa647 marked p-var7, alexa647 marked var7 were intravenously injected respectively with a dosage of 60 μM/100 pL N. S., in vivo imaging (excitation with Cy5.5 wavelength) was performed at 24, 48, 72 hours with supine position photography. The mice were sacrificed for tumor imaging.

[4] = test system: 4T1 cells tumors; conditions: fusion peptide 1 mg/kg intravenous every other day combined with CD20 monoclonal antibody GA101 30 mg/kg intraperitoneal twice a week; 4T1 tumors, Balb/c mice
Description: 4T1 cells were inoculated into mouse breasts, 2×10^6 cells/mouse, 50 μl volume.
(§1) When the tumor grows to 50mm^3, treatment was started.
(§2) The tumor volume and mouse body weight were measured every 3 days.
When the tumor volume in the control group reached 1000 mm^3, the administration was terminated.
When the tumor grows to 50mm^3, treatment was started. There are four groups: CD20-var3/GA101 group (10), GA101 group (5), CD20-var3 group (5), PBS group (10).
Administration method: CD20-var3, 1 mg/kg, intravenous injection, every other day; GA101, 30 mg/kg, intraperitoneal injection, twice a week. The tumor volume and mouse body weight were measured every 3 days.
as §1, §2

[5] = test system: A549 tumors; conditions: Herceptin 10 mg/kg intraperitoneal combined with Her2 D4-pHLIP 40 μM/100 μl intravenous, nude mice
Description: A549 was inoculated into nude mice, when the tumor diameter grew to 1 cm, the tumor was aseptically peeled off, shredded, homogenized, and sieved to make a single cell suspension which was cultured and amplified in 1640 complete medium. The cells were injected into the subcutaneous abdomen of the nude mice with 1×10^6 cells/body, when the tumor diameter grew to 0.5 to 1 cm, the oversized and undersized tumors were removed, and mice with substantially the same tumor size were grouped. There were 4 groups: injection group of the Her2 D4-pHLIP alone, 10; injection group of the Her2 D4-pHLIP combined with the herceptin, 10; injection group of the Her2 D4-pHLIP combined with the IgG1, 10; injection group of normal saline N. S, 10. The tumor size was measured every 3 days.
Administration method: Her2 D4-pHLIP administration: each was injected intravenously with 40 μM/100 μl every time, starting from the day after the grouping was completed, once a day, and once every 2 days; antibody administration: Intraperitoneal injection, the dose was 10 mg/kg, the injection frequency was the same as the Her2 D4-pHLIP, and the injection time was 6 to 12 hours after the administration of the Her2 D4-pHLIP until the end.

ACDDQNPWRAYLDLLFPTDTLLLDLLW (listed as Homo sapiens) [var3]
tumor targeting [1]: improve its tumor targeting

ACEEQNPGGGSACEEQNPWARYLEWLFPTETLLLEL [p-var7]
insertion into the surface of the cell (fluorescence on cell membrane) [2]: could effectively insert into the surface of human colon cancer cell SW480 | membrane insertion ability [2]: lost | selectivity in the acidic microenvironment ([2]; p-var7 compared with var7, pH 6.3 vs 7.4): more selective in the acidic microenvironment of tumor tissues | fluorescent marking of tumor tissues by 72 hours ([3]; CT26 tumors, Balb/c mice): still showed strong fluorescent marking | marking of tumors (in vivo imaging) ([3]; Balb/c mice): could mark tumors | marking ability, compared ([3]; p-var7 compared with var7, CT26 tumors, Balb/c mice): stronger marking ability | accumulation of fluorescence in the tumor sites, persistence ([3]; previous experiment results of in vivo imaging, same dose 40 μM/100 μl intravenously): basically degraded by the third day

ACEEQNPWARYLEWLFPTETLLLEL [var7, reference compound]
insertion into the surface of the cell (fluorescence on cell membrane) [2]: could effectively insert into the surface of human colon cancer cell SW480 | membrane insertion ability [2]: retained the ability | fluorescence intensity as time went by ([3]; 24 to 72 hours, var7 compared with p-var7, CT26 tumors, Balb/c mice): decayed more significantly | fluorescent marking of tumor tissues by 72 hours ([3]; CT26 tumors, Balb/c mice): only a few markers were visible in the tumor tissues | marking of tumors (in vivo imaging) ([3]; Balb/c mice): could mark tumors | tumor targeting [1]: maintaining good targeting

NIYNCEPANP SEKN SP S TQYC Y SIQ GGG SA S EEQNPWARYLEWLFP TETLLLEL [CD20-var7]
tumor cell growth [4]: can significantly inhibit tumor cells growth

NIYNCEPANP SEKN SP S TQYCYSIQGGGSACDDQNPWRAYLDLLFPTDTLLLD LLW [CD20-var3]
tumor cell growth [4]: can significantly inhibit tumor cell growth

NIYNCEPANP SEKN SP S TQYCYSIQGGGSACEQNPIYWARYADWLF TTPLLLL DLALLVDADEG [CD20-WT]
tumor cell growth [4]: can significantly inhibit tumor cell growth

trastuzumab [Herceptin]
tumor growth [5]: significantly inhibited tumor growth

— patent US20210214399A1, “PH LOW INSERTION PEPTIDE AND COMPOSITION THEREOF” (priority 2017, published 2021)
